Reference: US20060062866A1, “Starch-pomegranate juice complex as an HIV entry inhibitor and topical microbicide” (NEW YORK BLOOD CENTER, INC., priority 2004, published 2006)

Biological target: T1, gp120-CD4 binding (Human immunodeficiency virus type 1 group M subtype B, UniProt P03375)
T1 construct: coated with 100 ng/well of either gp120 IIIB or gp120 BaL
Set-up: species or system HIV-1
Conditions: purified commercial compounds at 200 μg/ml
Procedure: CD4-HIV-1 gp120 binding and its inhibition were measured by ELISA. Wells of 96-well polystyrene plates (Immulon II, Dynatech Laboratories, Inc., Chantilly, Va.) were coated with 100 ng/well of either gp120 IIIB or gp120 BaL, and post-coated as described [Neurath, A. R., Strick, N., Li, Y. Y., Debnath, A. K.: Cellulose acetate phthalate, a common pharmaceutical excipient, inactivates HIV-1 and blocks the coreceptor binding site on the virus envelope glycoprotein gp120, BMC Infect. Dis., (2001), 1:17]. […] The wells were washed 5× with TS. Biotinyl-CD4 (1 μg/ml) in TS-1% gelatin was added to the wells for 5 hours at 37° C. After washing 1× with TS-0.1% Tween 20 and 5× with TS, horseradish peroxidase (HRP)-streptavidin (0.625 μg/ml; Amersham, Arlington Heights, Ill.) in TS-2% gelatin-0.05% Tween 20 was added. After 30 minutes at 37° C., the wells were washed 4 x with TS-0.1% Tween 20 and 2× with TS. Bound HRP-was detected using a kit from Kirkegaard and Perry Laboratories Inc. (Gaithersburg, Md.) and the absorbance (A) read at 450 nm. […] In an alternative assay, CD4 (500 ng/ml) was mixed with biotinyl-gp120 (1 μg/ml) in the presence or absence of inhibitors for 30 minutes at 20° C. Serial dilutions of the mixtures were added to wells coated with the anti-CD4 mAb OKT 4 (Ortho-Clinical Diagnostics, Rochester, N.Y.) and captured biotinyl-gp120 was detected with HRP-streptavidin as described above. To measure binding to gp120 of antibodies to gp120 peptides, the respective rabbit antisera were diluted 50-fold in a mixture of FBS and goat serum (9:1) containing 0.1% Tween 20 (pH 8.0) and added to gp120 wells. Bound IgG was detected with HRP labeled anti-rabbit IgG (Sigma, St. Louis, Mo.; 1 μg/ml in TS-10% goat serum-0.1% Tween 20). […] Briefly, FLSC (125 ng/ml) in the absence or presence of graded amounts of inhibitors was added to Cf2Th/synCCR5 cells fixed with 5% formaldehyde in wells of 96-well plates.

Molecule	blocking of gp120-CD4 binding (ELISA)
catechin	did not block
O=C(O)/C=C/c1ccc(O)c(O)c1 [caffeic acid]	did not block
C[C@H]1[C@H](C)CC[C@]2(C(=O)O)CC[C@]3(C)C(=CC[C@@H]4[C@@]5(C)CC[C@H](O)C(C)(C)[C@@H]5CC[C@]43C)[C@H]12 [ursolic acid]	did not block
O=c1c(O)c(-c2ccc(O)c(O)c2)oc2cc(O)cc(O)c12 [quercetin]	did not block
